The values that follow come from patent US20260224584A1 (priority 2023, published 2026).

Counter-ions that a name gives are not always drawn.

In the experiment the test system is Human WB (90%) CD69. Description: Human WB (90%) CD69. The format is cell-based. The conditions noted are these: read-out: Human WB (90%) CD69 IC50 (nM); human whole blood (90%), CD69 readout.
Regarding `COc1ccc(-c2nc3c(N4CCN(C5COC5)CC4)cc(-c4ccc(N5CCN(C(C)C)CC5)cc4)cc3n2C)cc1OC` [Example 59, 2-(3,4-dimethoxyphenyl)-6-(4-(4-isopropylpiperazin-1-yl)phenyl)-1-methyl-4-(4-(oxetan-3-yl)piperazin-1-yl)-1H-benzo[d]imidazole], the IC50 stood at 651 nM.
Turning to `Cc1nc2c(N3CCC(CNC4COC4)CC3)cc(-c3ccc(N4CCN(C(C)C)CC4)cc3)cc2n1C` [Example 60, N-((1-(6-(4-(4-isopropylpiperazin-1-yl)phenyl)-1,2-dimethyl-1H-benzo[d]imidazol-4-yl)piperidin-4-yl)methyl)oxetan-3-amine], the half-maximal inhibitory concentration (IC50) was determined as 535 nM.
As for `Cc1nc2c(N3CCC(CNC4CCOCC4)CC3)cc(-c3ccc(N4CCN(C(C)C)CC4)cc3)cc2n1C` [Example 61, N-((1-(6-(4-(4-isopropylpiperazin-1-yl)phenyl)-1,2-dimethyl-1H-benzo[d]imidazol-4-yl)piperidin-4-yl)methyl)tetrahydro-2H-pyran-4-amine], the figure is 156 nM.
The value for `CC(C)N1CCN(c2ccc(-c3cc(NC4CCN(C5COC5)CC4)c4nc(-c5ccc(S(C)(=O)=O)cc5)n(C)c4c3)cc2)CC1` [Example 62, 6-(4-(4-isopropylpiperazin-1-yl)phenyl)-1-methyl-2-(4-(methylsulfonyl)phenyl)-N-(1-(oxetan-3-yl)piperidin-4-yl)-1H-benzo[d]imidazol-4-amine, 2 TFA] was 111 nM; that for `CC(C)N1CCN(c2ccc(-c3cc(NCCN4CCOCC4)c4nc(-c5ccc(S(C)(=O)=O)cc5)n(C)c4c3)cc2)CC1` [Example 63, 6-(4-(4-isopropylpiperazin-1-yl)phenyl)-1-methyl-2-(4-(methylsulfonyl)phenyl)-N-(2-morpholinoethyl)-1H-benzo[d]imidazol-4-amine] was 121 nM.
